PubChem BioAssay AID248 (DTP/NCI, 2004)
Values joined by “and” are separate entries in the source; they are usually repeats but may differ in a detail not shown here. Equal entries are not always repeated. Toxic doses and inconclusive results are not listed.

System: L1210 leukemia ip in BDF1 mice, survival T/C
Assay: NCI In Vivo Anticancer Drug Screen. Data for tumor model L1210 Leukemia (intraperitoneal) in B6D2F1 (BDF1) mice
Conditions: higher = longer survival
Summary of the method: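 Tumor was transplanted into mice, which were then dosed with test compound or vehicle alone. Survival was recorded for each group, and the treated figure was expressed relative to the control figure.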

Compound: Nc1ncn(C2OC(CO)C(O)C2O)c(=O)n1 (stereo not given)
- T/C (endpoint: mean survival time, dose: 0.12 mg/kg/injection, schedule: Q01DX009 (ip), vehicle: saline): 111 % of control
- T/C (endpoint: mean survival time, dose: 0.23 mg/kg/injection, schedule: Q01DX009 (ip), vehicle: saline): 101 % of control and 121 % of control
- T/C (endpoint: mean survival time, dose: 0.5 mg/kg/injection, schedule: Q01DX009 (ip), vehicle: saline): 156 % of control
- T/C (endpoint: mean survival time, dose: 0.75 mg/kg/injection, schedule: Q01DX009 (ip), vehicle: other): 161 % of control
- T/C (endpoint: mean survival time, dose: 1.0 mg/kg/injection, schedule: Q01DX005 (oral), vehicle: saline): 114 % of control
- T/C (endpoint: mean survival time, dose: 1.0 mg/kg/injection, schedule: Q## X008 (ip), vehicle: saline): 121 % of control
- T/C (endpoint: mean survival time, dose: 1.0 mg/kg/injection, schedule: Q## X040 (oral), vehicle: saline): 105 % of control
- T/C (endpoint: mean survival time, dose: 1.25 mg/kg/injection, schedule: Q01DX009 (ip), vehicle: saline): 170 % of control
- T/C (endpoint: mean survival time, dose: 1.3 mg/kg/injection, schedule: Q03HX008 (ip), vehicle: saline): 171 % of control
- T/C (endpoint: mean survival time, dose: 1.5 mg/kg/injection, schedule: Q01DX005 (ip), vehicle: clinical formulation): 150 % of control
- T/C (endpoint: mean survival time, dose: 1.5 mg/kg/injection, schedule: Q01DX009 (ip), vehicle: water): 164 % of control and 166 % of control
- T/C (endpoint: mean survival time, dose: 2.0 mg/kg/injection, schedule: Q01DX005 (oral), vehicle: saline): 124 % of control
- T/C (endpoint: mean survival time, dose: 2.0 mg/kg/injection, schedule: Q01DX015 (ip), vehicle: other): 159 % of control
- T/C (endpoint: mean survival time, dose: 2.0 mg/kg/injection, schedule: Q03HX008 (ip), vehicle: saline): 155 % of control
- T/C (endpoint: mean survival time, dose: 2.0 mg/kg/injection, schedule: Q## X024 (ip), vehicle: saline): 151 % of control
- T/C (endpoint: mean survival time, dose: 2.0 mg/kg/injection, schedule: Q## X040 (oral), vehicle: saline): 108 % of control
- T/C (endpoint: mean survival time, dose: 2.3 mg/kg/injection, schedule: Q04DX002 (ip), vehicle: saline): 117 % of control and 123 % of control
- T/C (endpoint: mean survival time, dose: 2.5 mg/kg/injection, schedule: Q01DX009 (ip), vehicle: carboxymethylcellulose (CMC)): 155 % of control
- T/C (endpoint: mean survival time, dose: 3.0 mg/kg/injection, schedule: Q01DX001 (ip), vehicle: saline): 119 % of control
- T/C (endpoint: mean survival time, dose: 3.0 mg/kg/injection, schedule: Q01DX005 (ip), vehicle: water): 150 % of control
- T/C (endpoint: mean survival time, dose: 3.0 mg/kg/injection, schedule: Q01DX009 (ip), vehicle: saline with Tween-80): 111 % of control
- T/C (endpoint: mean survival time, dose: 3.0 mg/kg/injection, schedule: Q01DX009 (oral), vehicle: saline): 158 % of control
- T/C (endpoint: mean survival time, dose: 3.0 mg/kg/injection, schedule: Q03HX008 (ip), vehicle: saline): 170 % of control
- T/C (endpoint: mean survival time, dose: 3.12 mg/kg/injection, schedule: Q01DX009 (ip), vehicle: saline): 164 % of control
- T/C (endpoint: mean survival time, dose: 3.12 mg/kg/injection, schedule: Q04DX003 (ip), vehicle: water): 157 % of control and 160 % of control
- T/C (endpoint: mean survival time, dose: 4.0 mg/kg/injection, schedule: Q## X024 (ip), vehicle: saline): 168 % of control
- T/C (endpoint: mean survival time, dose: 6.0 mg/kg/injection, schedule: Q01DX005 (ip), vehicle: water): 112 % of control
- T/C (endpoint: mean survival time, dose: 6.0 mg/kg/injection, schedule: Q01DX009 (ip), vehicle: clinical formulation): 103 % of control
- T/C (endpoint: mean survival time, dose: 6.0 mg/kg/injection, schedule: Q01DX009 (ip), vehicle: other): 104 % of control
- T/C (endpoint: mean survival time, dose: 6.0 mg/kg/injection, schedule: Q01DX009 (ip), vehicle: saline): 98 % of control
- T/C (endpoint: mean survival time, dose: 6.0 mg/kg/injection, schedule: Q01DX009 (ip), vehicle: water): 94 % of control
- T/C (endpoint: mean survival time, dose: 6.0 mg/kg/injection, schedule: Q01DX009 (oral), vehicle: saline): 172 % of control
- T/C (endpoint: mean survival time, dose: 6.0 mg/kg/injection, schedule: Q## X008 (ip), vehicle: saline): 156 % of control
- T/C (endpoint: mean survival time, dose: 7.2 mg/kg/injection, schedule: Q01DX009 (ip), vehicle: saline): 111 % of control
- T/C (endpoint: mean survival time, dose: 8.0 mg/kg/injection, schedule: Q01DX005 (oral), vehicle: saline): 164 % of control
- T/C (endpoint: mean survival time, dose: 8.0 mg/kg/injection, schedule: Q## X040 (oral), vehicle: saline): 163 % of control
- T/C (endpoint: mean survival time, dose: 10.0 mg/kg/injection, schedule: Q01DX009 (ip), vehicle: saline): 111 % of control
- T/C (endpoint: mean survival time, dose: 12.0 mg/kg/injection, schedule: Q01DX001 (ip), vehicle: saline): 150 % of control
- T/C (endpoint: mean survival time, dose: 12.0 mg/kg/injection, schedule: Q01DX005 (ip), vehicle: saline): 168 % of control
- T/C (endpoint: mean survival time, dose: 12.0 mg/kg/injection, schedule: Q01DX009 (ip), vehicle: saline): 98 % of control
- T/C (endpoint: mean survival time, dose: 12.0 mg/kg/injection, schedule: Q## X008 (ip), vehicle: saline): 161 % of control and 162 % of control
- T/C (endpoint: mean survival time, dose: 12.5 mg/kg/injection, schedule: Q01DX001 (ip), vehicle: saline): 164 % of control
- T/C (endpoint: mean survival time, dose: 12.5 mg/kg/injection, schedule: Q01DX005 (ip), vehicle: saline): 172 % of control
- T/C (endpoint: mean survival time, dose: 22.0 mg/kg/injection, schedule: Q01DX001 (ip), vehicle: other): 153 % of control
- T/C (endpoint: mean survival time, dose: 22.0 mg/kg/injection, schedule: Q01DX001 (ip), vehicle: saline): 160 % of control
- T/C (endpoint: mean survival time, dose: 24.0 mg/kg/injection, schedule: Q01DX001 (ip), vehicle: saline): 158 % of control
- T/C (endpoint: mean survival time, dose: 24.0 mg/kg/injection, schedule: Q01DX009 (ip), vehicle: saline): 93 % of control
- T/C (endpoint: mean survival time, dose: 24.0 mg/kg/injection, schedule: Q## X008 (ip), vehicle: saline): 171 % of control
- T/C (endpoint: mean survival time, dose: 25.0 mg/kg/injection, schedule: Q01DX001 (ip), vehicle: saline): 166 % of control and 168 % of control
- T/C (endpoint: mean survival time, dose: 32.0 mg/kg/injection, schedule: Q01DX001 (oral), vehicle: saline): 112 % of control
- T/C (endpoint: mean survival time, dose: 32.0 mg/kg/injection, schedule: Q## X003 (oral), vehicle: saline): 163 % of control
- T/C (endpoint: mean survival time, dose: 32.0 mg/kg/injection, schedule: Q## X024 (oral), vehicle: saline): 173 % of control
- T/C (endpoint: mean survival time, dose: 33.0 mg/kg/injection, schedule: Q01DX001 (ip), vehicle: saline): 153 % of control
- T/C (endpoint: mean survival time, dose: 48.0 mg/kg/injection, schedule: Q01DX009 (ip), vehicle: saline): 102 % of control
- T/C (endpoint: mean survival time, dose: 64.0 mg/kg/injection, schedule: Q01DX001 (oral), vehicle: saline): 111 % of control
- T/C (endpoint: mean survival time, dose: 64.0 mg/kg/injection, schedule: Q## X003 (oral), vehicle: saline): 163 % of control and 164 % of control
- T/C (endpoint: mean survival time, dose: 64.0 mg/kg/injection, schedule: Q## X008 (oral), vehicle: saline): 158 % of control
- T/C (endpoint: mean survival time, dose: 69.0 mg/kg/injection, schedule: Q04DX002 (ip), vehicle: saline): 150 % of control
- T/C (endpoint: mean survival time, dose: 75.0 mg/kg/injection, schedule: Q01DX001 (ip), vehicle: other): 168 % of control
- T/C (endpoint: mean survival time, dose: 96.0 mg/kg/injection, schedule: Q01DX001 (ip), vehicle: saline): 174 % of control
- T/C (endpoint: mean survival time, dose: 96.0 mg/kg/injection, schedule: Q## X003 (ip), vehicle: saline): 114 % of control
- T/C (endpoint: mean survival time, dose: 100.0 mg/kg/injection, schedule: Q01DX001 (ip), vehicle: other): 162 % of control
- T/C (endpoint: mean survival time, dose: 125.0 mg/kg/injection, schedule: Q01DX001 (ip), vehicle: saline): 151 % of control
- T/C (endpoint: mean survival time, dose: 150.0 mg/kg/injection, schedule: Q01DX001 (ip), vehicle: saline): 154 % of control
- T/C (endpoint: mean survival time, dose: 200.0 mg/kg/injection, schedule: Q01DX001 (ip), vehicle: other): 118 % of control
- T/C (endpoint: mean survival time, dose: 256.0 mg/kg/injection, schedule: Q## X003 (oral), vehicle: saline): 171 % of control
- T/C (endpoint: mean survival time, dose: 512.0 mg/kg/injection, schedule: Q## X003 (oral), vehicle: saline): 111 % of control
- T/C (endpoint: mean survival time, dose: 768.0 mg/kg/injection, schedule: Q01DX001 (oral), vehicle: saline): 157 % of control
- T/C (endpoint: median survival time, dose: 0.75 mg/kg/injection, schedule: Q01DX009 (ip), vehicle: saline): 160 % of control
- T/C (endpoint: median survival time, dose: 0.78 mg/kg/injection, schedule: Q01DX009 (ip), vehicle: saline): 150 % of control
- T/C (endpoint: median survival time, dose: 1.0 mg/kg/injection, schedule: Q01DX005 (ip), vehicle: saline): 120 % of control
- T/C (endpoint: median survival time, dose: 1.3 mg/kg/injection, schedule: Q01DX009 (ip), vehicle: saline): 154 % of control and 159 % of control
- T/C (endpoint: median survival time, dose: 2.0 mg/kg/injection, schedule: Q01DX005 (ip), vehicle: saline): 169 % of control
- T/C (endpoint: median survival time, dose: 3.6 mg/kg/injection, schedule: Q01DX009 (ip), vehicle: saline): 100 % of control and 104 % of control
- T/C (endpoint: median survival time, dose: 5.0 mg/kg/injection, schedule: Q01DX001 (ip), vehicle: saline): 121 % of control and 122 % of control
- T/C (endpoint: median survival time, dose: 6.0 mg/kg/injection, schedule: Q01DX009 (ip), vehicle: saline): 110 % of control
- T/C (endpoint: median survival time, dose: 8.0 mg/kg/injection, schedule: Q01DX005 (ip), vehicle: saline): 154 % of control
- T/C (endpoint: median survival time, dose: 8.4 mg/kg/injection, schedule: Q01DX009 (ip), vehicle: saline): 99 % of control and 100 % of control
- T/C (endpoint: median survival time, dose: 40.0 mg/kg/injection, schedule: Q01DX001 (ip), vehicle: saline): 153 % of control and 155 % of control
- T/C (endpoint: median survival time, dose: 80.0 mg/kg/injection, schedule: Q01DX001 (ip), vehicle: saline): 151 % of control and 155 % of control
